Assay results from PubChem BioAssay (NCI).
Where “and” joins values, the source holds several entries; their conditions need not be identical. Equal values may be shown once.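 Five concentrations, 48 hours, 96-well plates. GI50 = concentration required for 50% inhibition of growth. The concentration for full growth arrest is given as TGI.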

How the values were obtained:
Experiment in all cases: DTP human tumour cell line panel, 48 h
CAKI-1 renal = test system: CAKI-1 renal
DU-145 prostate = test system: DU-145 prostate
HCT-15 colon = test system: HCT-15 colon
LOX IMVI melanoma = test system: LOX IMVI melanoma
M14 melanoma = test system: M14 melanoma
SF-268 CNS = test system: SF-268 CNS
SK-MEL-28 melanoma = test system: SK-MEL-28 melanoma
UACC-257 melanoma = test system: UACC-257 melanoma
DLD-1 colon = test system: DLD-1 colon
LXFL 529 NSCLC = test system: LXFL 529 NSCLC

Structure (SMILES)	GI50 (CAKI-1 renal)	TGI (CAKI-1 renal)	GI50 (DU-145 prostate)	TGI (DU-145 prostate)	GI50 (HCT-15 colon)	TGI (HCT-15 colon)	GI50 (LOX IMVI melanoma)	TGI (LOX IMVI melanoma)	GI50 (M14 melanoma)	TGI (M14 melanoma)	GI50 (SF-268 CNS)	TGI (SF-268 CNS)	GI50 (SK-MEL-28 melanoma)	TGI (SK-MEL-28 melanoma)	GI50 (UACC-257 melanoma)	TGI (UACC-257 melanoma)	TGI (DLD-1 colon)	TGI (LXFL 529 NSCLC)
CCCCCCCCCCCCNC(=O)[C@H]1CSC(c2ccc(OC)c(F)c2)N1 (some centres not stated)	1.56 µM	2.94 µM	0.888 µM	2.46 µM	1.78 µM	3.39 µM	0.19 µM	0.398 µM	0.191 µM	0.374 µM	0.216 µM	0.455 µM	0.342 µM	1.11 µM	1.62 µM	3.13 µM		
CC(C)(C)NCCC(O)c1cc(C(F)(F)F)nc2c(C(F)(F)F)cccc12 (configuration not stated)		9.97 µM		6.17 µM		21 µM		5.31 µM		19.4 µM		24.2 µM		30.7 µM		26.4 µM		
O=[N+]([O-])O.[NH-]C1CCCCC1[NH-].[NH-]C1CCCCC1[NH-].[NH-]C1CCCCC1[NH-].[OH-].[OH-].[OH-].[Pt+4].[Pt+4].[Pt+4] (configuration not stated)	0.222 µM	9.33 µM	1.35 µM	50 µM	0.223 µM	> 43.5 µM	0.467 µM	> 85.7 µM	0.918 µM	11.9 µM	0.791 µM	> 50.2 µM	1.43 µM	43.2 µM	1.27 µM	20.4 µM		
C/C(=N\NC(=S)N1CCC(C2CCN(C(=S)N/N=C(\C)c3ccccn3)CC2)CC1)c1ccccn1		> 100 µM						> 100 µM		> 100 µM		> 100 µM		> 100 µM		> 100 µM	> 100 µM	> 100 µM
O=C1CC2Sc3ccccc3N=C2N1c1ccc(Cl)cc1Cl (configuration not stated)								> 100 µM		> 100 µM		> 100 µM		> 100 µM		> 100 µM	> 100 µM	> 100 µM
CC(C)n1nc(C#Cc2cccc(NC(=O)c3cccc(C(F)(F)F)c3)c2)c2c(N)ncnc21	2.06 µM	12.8 µM	2.78 µM	12.3 µM	2.41 µM	> 100 µM	0.204 µM	1.04 µM	0.309 µM	2.03 µM	2.15 µM	10.4 µM	0.368 µM	6.82 µM	0.538 µM	5.68 µM		
O=C(NO)C(O)C(O)C(O)C(O)CO (configuration not stated)	31.3 µM	> 100 µM	40 µM and > 100 µM	> 100 µM	> 100 µM	> 100 µM	> 100 µM and 94.8 µM	> 100 µM	> 100 µM	> 100 µM	> 100 µM	> 100 µM	> 100 µM	> 100 µM	> 100 µM	> 100 µM		
CC1SC2(CCCCC2)N(NC(=O)c2[nH]c3ccc(F)cc3c2-c2ccccc2)C1=O (configuration not stated)	> 100 µM	> 100 µM	> 100 µM	> 100 µM	> 100 µM	> 100 µM	> 100 µM	> 100 µM	> 100 µM	> 100 µM	78.7 µM	> 100 µM	> 100 µM	> 100 µM	90.9 µM	> 100 µM		
COc1cc(C(=O)N/N=C/c2cccc([N+](=O)[O-])c2)cc(OC)c1OC	2.53 µM	11.9 µM	7.1 µM	> 100 µM	6.78 µM	> 100 µM	4.69 µM	> 100 µM	4.3 µM	54.3 µM	5.57 µM	> 100 µM	39.3 µM	> 100 µM	5.11 µM	> 100 µM		
COC(=O)C(=O)C(C(=O)C(=O)Nc1ccccc1C(N)=O)c1nc2ccc(C(=O)c3ccccc3)cc2[nH]c1=O (configuration not stated)		> 100 µM				> 100 µM				> 100 µM		> 100 µM		> 100 µM		> 100 µM		> 100 µM
C=C(CC1(CC(=C)c2ccc(C(=O)O)cc2)C(=O)N(C)C(=O)N(C)C1=O)c1ccc(C(=O)O)cc1	60.3 µM	> 100 µM	> 100 µM	> 100 µM	> 100 µM	> 100 µM	80.8 µM	> 100 µM	> 100 µM	> 100 µM	70.4 µM	> 100 µM	> 100 µM	> 100 µM	34.9 µM	> 100 µM		
CCN(CC)CCOc1ccc(C2=C(c3ccccc3)CCc3cc(OC)ccc32)cc1	2.18 µM	5.86 µM	6.69 µM	17.5 µM	1.16 µM	4.06 µM	1.75 µM	3.64 µM	1.88 µM	3.82 µM	5.97 µM	18 µM	1.62 µM	3.19 µM	1.81 µM	3.6 µM		
Cc1ccc(OCCCCCCNCCO)c(C)c1	16.2 µM	32.2 µM	16.7 µM	30.6 µM	15.8 µM	33.8 µM	15 µM	29.7 µM	16.3 µM	35.3 µM	16 µM	31.1 µM	15.4 µM	29.9 µM	14.2 µM	29.6 µM		
COc1cc(/C=C\c2cccnc2Nc2ccccc2)cc(OC)c1OC	4.01 µM	61.1 µM	6.22 µM	> 100 µM	5.02 µM	> 100 µM	4.51 µM	24.6 µM	8.99 µM	38.1 µM	8.19 µM	> 100 µM	5.43 µM	41 µM	8.52 µM	65.7 µM		
CCOC(=O)C1=C(c2ccccc2)N(Cc2ccccc2)C2(O)C=CC(=O)C3C(=O)N(c4ccccc4)C(=O)C132 (configuration not stated)	3.08 µM	9.71 µM	1.65 µM	3.92 µM	1.7 µM	3.67 µM	1.34 µM	2.67 µM	1.92 µM	4.04 µM	2.56 µM	8.08 µM	1.73 µM	3.85 µM	2.82 µM	8.06 µM		
O=C(CN=Cc1cccs1)CSC(c1ccccc1)c1ccccc1	24.9 µM	67.1 µM	34 µM	> 100 µM	17.7 µM	57.3 µM	25.8 µM	82.2 µM	22 µM	55.5 µM	50.1 µM	> 100 µM	27.7 µM	> 100 µM	22.1 µM	48 µM		
